# Tests used:
# NAMPT = NAMPT (Homo sapiens, UniProt P43490); assay: Time-Resolved Fluorescence Resonance Energy Transfer (TR-FRET) Binding Assay of NAMPT with PRPP; details: 2 nM NAMPT, 2 nM probe, 200 uM PRPP and 2.5 mM ATP, equilibrated 16 hours
# How it was run: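 Final mix: 2 nM NAMPT, 2 nM probe, 1 nM Tb-anti-His antibody, 200 uM PRPP, 2.5 mM ATP, 2% DMSO in 1× assay buffer. Equilibrated 16 hours before TR-FRET read, allowing possible enzymatic modification of compounds.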
# [1] = target: NAMPT (human, recombinant, C-terminally His-tagged) (Homo sapiens, UniProt P43490); assay: Time-Resolved Fluorescence Resonance Energy Transfer (TR-FRET) Binding Assay of NAMPT; details: 6.8 nM NAMPT, 200 nM probe, equilibrated 3 hours, absence of substrates
# Sequence of NAMPT (human, recombinant, C-terminally His-tagged) (P43490 whole entry): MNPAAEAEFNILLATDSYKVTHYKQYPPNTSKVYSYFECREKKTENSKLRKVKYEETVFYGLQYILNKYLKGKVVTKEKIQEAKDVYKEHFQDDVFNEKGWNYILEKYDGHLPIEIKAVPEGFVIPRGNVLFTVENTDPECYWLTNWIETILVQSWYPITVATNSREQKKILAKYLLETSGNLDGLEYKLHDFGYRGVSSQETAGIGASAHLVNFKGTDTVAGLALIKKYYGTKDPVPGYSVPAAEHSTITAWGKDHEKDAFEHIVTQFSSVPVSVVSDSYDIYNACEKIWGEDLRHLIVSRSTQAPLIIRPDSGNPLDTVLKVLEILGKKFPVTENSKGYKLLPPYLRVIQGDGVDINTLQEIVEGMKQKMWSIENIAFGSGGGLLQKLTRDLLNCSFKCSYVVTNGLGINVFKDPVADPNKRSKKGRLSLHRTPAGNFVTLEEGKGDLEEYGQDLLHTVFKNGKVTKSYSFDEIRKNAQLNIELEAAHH
# How it was run: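 Recombinant C-terminally His-tagged human NAMPT (6.8 nM) incubated 3 h at room temperature with 200 nM Oregon Green 488–labelled nicotinamide-competitive probe and 1 nM Tb-anti-His antibody in HEPES pH 7.5, 2% DMSO. TR-FRET ratio Em520/Em495 normalized to controls; IC50 from four-parameter logistic fit.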
# Sequence of NAMPT (P43490 whole entry): as above
smiles,measurement,setting,value
"O=C(Nc1ccc(OC2CCN(C(=O)c3cccc(OC(F)(F)F)c3)CC2)cc1)C1CN(c2cccnn2)C1 [Example 224, 1-(pyridazin-3-yl)-N-[4-({1-[3-(trifluoromethoxy)benzoyl]piperidin-4-yl}oxy)phenyl]azetidine-3-carboxamide]",IC50,NAMPT,1.39 nM
same,IC50,[1],151 nM
"CC(C)CCC(=O)N1CCC(c2ccc(NC(=O)C3CN(c4cccnn4)C3)cc2)CC1 [Example 324, N-{4-[1-(4-methylpentanoyl)piperidin-4-yl]phenyl}-1-(pyridazin-3-yl)azetidine-3-carboxamide]",IC50,NAMPT,1.04 nM
same,IC50,[1],47.3 nM
"O=C(Nc1ccc(C2CCN(C(=O)[C@@H]3CCCO3)CC2)cc1)C1CN(c2cccnc2)C1 [Example 10, 1-(pyridin-3-yl)-N-(4-{1-[(2S)-tetrahydrofuran-2-ylcarbonyl]piperidin-4-yl}phenyl)azetidine-3-carboxamide]",IC50,NAMPT,0.518 nM
same,IC50,[1],34.5 nM
"CC(C)(C)CC(=O)N1CCC(Oc2ccc(NC(=O)C3CN(c4cccnc4)C3)cc2)CC1 [Example 41, N-(4-{[1-(3,3-dimethylbutanoyl)piperidin-4-yl]oxy}phenyl)-1-(pyridin-3-yl)azetidine-3-carboxamide]",IC50,NAMPT,0.78 nM
same,IC50,[1],69.2 nM
"O=C(Nc1ccc(C2CCN(C(=O)c3cccc(C(F)(F)F)c3)CC2)cc1)C1CN(c2cccnn2)C1 [Example 354, 1-(pyridazin-3-yl)-N-(4-{1-[3-(trifluoromethyl)benzoyl]piperidin-4-yl}phenyl)azetidine-3-carboxamide]",IC50,NAMPT,0.837 nM
same,IC50,[1],82.8 nM
"Cc1ccsc1C(=O)N1CCC(Oc2ccc(NC(=O)C3CN(c4cccnc4)C3)cc2)CC1 [Example 59, N-[4-({1-[(3-methylthiophen-2-yl)carbonyl]piperidin-4-yl}oxy)phenyl]-1-(pyridin-3-yl)azetidine-3-carboxamide]",IC50,NAMPT,0.606 nM
same,IC50,[1],27.9 nM
"O=C(Nc1ccc(C2CCN(C(=O)c3nccs3)CC2)cc1)C1CN(c2cccnc2)C1 [Example 108, 1-(pyridin-3-yl)-N-{4-[1-(1,3-thiazol-2-ylcarbonyl)piperidin-4-yl]phenyl}azetidine-3-carboxamide]",IC50,NAMPT,0.176 nM
same,IC50,[1],3.33 nM
"Cc1ccncc1N1CC(C(=O)Nc2ccc(C3CCN(C(=O)C(C)(C)O)CC3)cc2)C1 [Example 72, N-{4-[1-(2-hydroxy-2-methylpropanoyl)piperidin-4-yl]phenyl}-1-(4-methylpyridin-3-yl)azetidine-3-carboxamide]",IC50,NAMPT,7.34 nM
same,IC50,[1],6.54 nM
"CC(C)CC(=O)N1CCC(Oc2ccc(NC(=O)C3CN(c4ccnnc4)C3)cc2)CC1 [Example 266, N-(4-{[1-(3-methylbutanoyl)piperidin-4-yl]oxy}phenyl)-1-(pyridazin-4-yl)azetidine-3-carboxamide]",IC50,NAMPT,53.2 nM
same,IC50,[1],120 nM
"CC(=O)N1CCC(Oc2ccc(NC(=O)C3CN(c4ccnnc4)C3)cc2)CC1 [Example 282, N-{4-[(1-acetylpiperidin-4-yl)oxy]phenyl}-1-(pyridazin-4-yl)azetidine-3-carboxamide]",IC50,NAMPT,90 nM
same,IC50,[1],383 nM
"Cn1cccc1C(=O)N1CCC(c2ccc(NC(=O)C3CN(c4cccnc4)C3)cc2)CC1 [Example 128, N-(4-{1-[(1-methyl-1H-pyrrol-2-yl)carbonyl]piperidin-4-yl}phenyl)-1-(pyridin-3-yl)azetidine-3-carboxamide]",IC50,NAMPT,0.61 nM
same,IC50,[1],8.36 nM
"CCC(C)(C)C(=O)N1CCC(Oc2ccc(NC(=O)C3CN(c4ccnnc4)C3)cc2)CC1 [Example 300, N-(4-{[1-(2,2-dimethylbutanoyl)piperidin-4-yl]oxy}phenyl)-1-(pyridazin-4-yl)azetidine-3-carboxamide]",IC50,NAMPT,39.1 nM
same,IC50,[1],64.2 nM
"O=C(Nc1ccc(OC2CN(C(=O)CC(F)(F)F)C2)cc1)C1CN(c2ccnnc2)C1 [Example 258, 1-(pyridazin-4-yl)-N-(4-{[1-(3,3,3-trifluoropropanoyl)azetidin-3-yl]oxy}phenyl)azetidine-3-carboxamide]",IC50,NAMPT,34.8 nM
same,IC50,[1],108 nM
"O=C(Nc1ccc(OC2CCN(C(=O)c3cccs3)CC2)cc1)C1CN(c2cccnc2)C1 [Example 61, 1-(pyridin-3-yl)-N-(4-{[1-(thiophen-2-ylcarbonyl)piperidin-4-yl]oxy}phenyl)azetidine-3-carboxamide]",IC50,NAMPT,0.675 nM
same,IC50,[1],33.7 nM
"O=C(Nc1ccc(OC2CCN(CC3CCOC3)CC2)cc1)C1CN(c2cccnc2)C1 (stereo not drawn) [Example 83, 1-(pyridin-3-yl)-N-(4-{[1-(tetrahydrofuran-3-ylmethyl)piperidin-4-yl]oxy}phenyl)azetidine-3-carboxamide]",IC50,NAMPT,0.503 nM
same,IC50,[1],1210 nM
"O=C(Nc1ccc(OC2CCN(C(=O)[C@H]3CCCO3)CC2)cc1)[C@H]1CCN(c2cccnc2)C1 [Example 14, (3S)-1-(pyridin-3-yl)-N-[4-({1-[(2R)-tetrahydrofuran-2-ylcarbonyl]piperidin-4-yl}oxy)phenyl]pyrrolidine-3-carboxamide]",IC50,NAMPT,3.08 nM
same,IC50,[1],3840 nM
"Cc1ncccc1N1CC(C(=O)Nc2ccc(C3CCN(C(=O)CCN4CCOCC4)CC3)cc2)C1 [Example 184, 1-(2-methylpyridin-3-yl)-N-(4-{1-[3-(morpholin-4-yl)propanoyl]piperidin-4-yl}phenyl)azetidine-3-carboxamide]",IC50,NAMPT,78.9 nM
same,IC50,[1],625 nM
"CCCC(=O)N1CCC(c2ccc(NC(=O)C3CN(c4cccnn4)C3)cc2)CC1 [Example 317, N-[4-(1-butanoylpiperidin-4-yl)phenyl]-1-(pyridazin-3-yl)azetidine-3-carboxamide]",IC50,NAMPT,0.991 nM
same,IC50,[1],43.9 nM
"CC(C)(C)C(=O)N1CCC(c2ccc(NC(=O)[C@H]3CCN(c4cccnn4)C3)cc2)CC1 [Example 313, (3S)—N-{4-[1-(2,2-dimethylpropanoyl)piperidin-4-yl]phenyl}-1-(pyridazin-3-yl)pyrrolidine-3-carboxamide]",IC50,NAMPT,4.13 nM
same,IC50,[1],217 nM
"O=C(Nc1ccc(OC2CCN(C(=O)c3ccccc3F)CC2)cc1)C1CN(c2cccnn2)C1 [Example 228, N-(4-{[1-(2-fluorobenzoyl)piperidin-4-yl]oxy}phenyl)-1-(pyridazin-3-yl)azetidine-3-carboxamide]",IC50,NAMPT,0.911 nM
same,IC50,[1],54.6 nM
"O=C(Nc1ccc(C2CCN(C(=O)C3CCCCC3)CC2)cc1)C1CN(c2cccnn2)C1 [Example 339, N-{4-[1-(cyclohexylcarbonyl)piperidin-4-yl]phenyl}-1-(pyridazin-3-yl)azetidine-3-carboxamide]",IC50,NAMPT,0.663 nM
same,IC50,[1],17.9 nM
"O=C(Nc1ccc(OC2CCN(C(=O)c3nccs3)CC2)cc1)C1CN(c2cccnn2)C1 [Example 213, 1-(pyridazin-3-yl)-N-(4-{[1-(1,3-thiazol-2-ylcarbonyl)piperidin-4-yl]oxy}phenyl)azetidine-3-carboxamide]",IC50,NAMPT,0.678 nM
same,IC50,[1],104 nM
"Cc1ncccc1N1CC(C(=O)Nc2ccc(C3CCN(C(=O)CCN(C)C)CC3)cc2)C1 [Example 168, N-{4-[1-(N,N-dimethyl-beta-alanyl)piperidin-4-yl]phenyl}-1-(2-methylpyridin-3-yl)azetidine-3-carboxamide]",IC50,NAMPT,171 nM
same,IC50,[1],2940 nM
"Cc1ccc(C(=O)N2CCC(c3ccc(NC(=O)C4CN(c5cccnn5)C4)cc3)CC2)cc1C [Example 360, N-{4-[1-(3,4-dimethylbenzoyl)piperidin-4-yl]phenyl}-1-(pyridazin-3-yl)azetidine-3-carboxamide]",IC50,NAMPT,0.782 nM
same,IC50,[1],22 nM
